Experimental data taken from PubChem BioAssay (NCI).
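Dose response: 5 concentrations. Exposure: 48 h. Format: 96-well plates. Endpoint: linear interpolation; highest concentration if not reached. GI50: concentration for 50% inhibition of growth. TGI is the concentration that stops growth completely.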

Tests used:
Assay in all cases: NCI anticancer screen, dose series, 48 h
[1] = tested on: HS 578T breast
[2] = tested on: HCT-116 colon
[3] = tested on: SW-620 colon
[4] = tested on: BT-549 breast
[5] = tested on: PC-3 prostate
[6] = tested on: MDA-MB-231 breast
[7] = tested on: HT29 colon
[8] = tested on: KM12 colon
[9] = tested on: NCI-H23 lung
[10] = tested on: UACC-62 melanoma

`O=[N+]([O-])c1ccc(N=Nc2c(O)ccc3cc(S(=O)(=O)O)ccc23)cc1` showed a TGI [1] of over 100 µM, a TGI [2] of over 100 µM and a TGI [3] of over 100 µM. The TGI [4] was over 100 µM, the TGI [5] was over 100 µM and the TGI [6] was over 100 µM. For the same compound, the TGI [7] was over 100 µM, the TGI [8] was over 100 µM and the TGI [9] was over 100 µM. The TGI [10] was over 100 µM.

`O=C(CCCn1c(=O)c2sc3ccccc3c2n2nnc(-c3ccccc3)c12)NCCc1cnc[nH]1` gave a GI50 [2] of 0.341 µM, a TGI [2] of 1.66 µM and a GI50 [4] of 17.3 µM. For the same compound, the TGI [4] was 41.5 µM, the GI50 [6] was 1.92 µM and the TGI [6] was 3.61 µM. For the same compound, the GI50 [7] was 1.36 µM, the TGI [7] was 3.16 µM and the GI50 [9] was 2.92 µM. It also gave a TGI [9] of 11.6 µM, a GI50 [10] of 1.91 µM and a TGI [10] of 3.56 µM.

In the case of `CO[C@H]1[C@@H](O)[C@@H](C)O[C@@H](O[C@H]2CC[C@@]3(C)[C@H](CC[C@@H]4[C@@H]3CC[C@]3(C)[C@@H](C5=CC(=O)OC5)CC[C@]43O)C2)[C@@H]1O`, the TGI [1] was 0.031 µM, the TGI [2] was 0.0275 µM and the TGI [3] was 2.51 µM. The TGI [4] was 0.0236 µM, the TGI [5] was 0.0171 µM and the TGI [6] was 0.269 µM. The TGI [7] was 0.0504 µM, the TGI [8] was 0.191 µM and the GI50 [9] was under 0.0025 µM. For the same compound, the TGI [9] was 0.00675 µM and the TGI [10] was 0.0228 µM.

For `COc1cc(-c2n/c(=C\c3c(O)[nH]c4ccc(Cl)cc34)cc3c2=Nc2ccccc2-3)cc(OC)c1OC`, the GI50 [1] was 2.29 µM, the TGI [1] was 8.31 µM and the GI50 [2] was 0.232 µM. The TGI [2] was 0.595 µM, the GI50 [3] was 0.366 µM and the TGI [3] was 1.6 µM. It also gave a GI50 [4] of 2.43 µM, a TGI [4] of 7.45 µM and a GI50 [5] of 1.82 µM. The TGI [5] was 5.92 µM, the GI50 [6] was 1.47 µM and the TGI [6] was 3.12 µM. It also gave a GI50 [7] of 1.04 µM, a TGI [7] of 2.96 µM and a GI50 [8] of 1.72 µM. The TGI [8] was 5.61 µM, the GI50 [9] was 1.05 µM and the TGI [9] was 3.85 µM. For the same compound, the GI50 [10] was 1.8 µM and the TGI [10] was 3.42 µM.

`[N-]=[N+]=Nc1ccc(NCCCCCC(=O)ON2C(=O)CCC2=O)c([N+](=O)[O-])c1` showed a TGI [1] of 97.2 µM, a TGI [2] of over 100 µM and a TGI [3] of over 100 µM. For the same compound, the TGI [4] was over 100 µM, the TGI [5] was over 100 µM and the TGI [6] was over 100 µM. It also gave a TGI [7] of over 100 µM, a TGI [8] of over 100 µM and a TGI [9] of over 100 µM. It also gave a TGI [10] of over 100 µM.

For `O=c1[nH][nH]c(=O)[nH]1`, the TGI [2] was over 100 µM, the TGI [3] was over 100 µM and the TGI [7] was over 100 µM. For the same compound, the TGI [8] was over 100 µM, the TGI [9] was over 100 µM and the TGI [10] was over 100 µM.

`Cc1nc2ccccc2c(=O)n1-c1n[nH]c2ccccc12` showed a TGI [1] of over 100 µM, a TGI [2] of over 100 µM and a TGI [3] of over 100 µM. It also gave a TGI [4] of over 100 µM, a TGI [5] of over 100 µM and a TGI [6] of over 100 µM. For the same compound, the TGI [7] was over 100 µM, the TGI [8] was over 100 µM and the TGI [9] was over 100 µM. For the same compound, the TGI [10] was over 100 µM.

`O=S1(=O)NNC(=NCc2ccc(Cl)c(Cl)c2)c2ccccc21` was tested, and the TGI [2] was over 100 µM, the TGI [3] was over 100 µM and the TGI [7] was over 100 µM. It also gave a TGI [8] of over 100 µM and a TGI [10] of over 100 µM.

Compound `CN1CCN(c2ccc(-c3ccc4ncc(C#N)c(Nc5ccc(F)c(Cl)c5)c4c3)cc2)CC1` has a GI50 [1] of 2.55 µM, a TGI [1] of 9.88 µM and a GI50 [3] of 2.81 µM. The TGI [3] was 14.5 µM, the GI50 [4] was 3.77 µM and the TGI [4] was 17.9 µM. For the same compound, the GI50 [5] was 2.08 µM, the TGI [5] was 7.92 µM and the GI50 [6] was 6 µM. For the same compound, the TGI [6] was 28.5 µM, the GI50 [7] was 2.33 µM and the TGI [7] was 8.32 µM. It also gave a GI50 [8] of 4.47 µM, a TGI [8] of 18.4 µM and a GI50 [9] of 10.1 µM. It also gave a TGI [9] of 41.5 µM, a GI50 [10] of 1.87 µM and a TGI [10] of 3.75 µM.

For `CN(C)CCNc1ccc2ncnc3c2c1C(=O)c1ccccc1-3`, the TGI [1] was 15.1 µM, the TGI [2] was 1.71 µM and the TGI [3] was 3.81 µM. The TGI [4] was 21 µM, the TGI [5] was 7.21 µM and the TGI [6] was 4.1 µM. For the same compound, the TGI [7] was 2.98 µM, the TGI [8] was 4.55 µM and the TGI [9] was 3.4 µM. It also gave a TGI [10] of 4.92 µM.

`CCn1nc(C)c2c1C(=O)NC(C)C(=O)N2` (configuration not stated) showed a TGI [1] of over 100 µM, a TGI [2] of over 100 µM and a TGI [3] of over 100 µM. The TGI [4] was over 100 µM, the TGI [5] was over 100 µM and the TGI [7] was over 100 µM. It also gave a TGI [9] of over 100 µM and a TGI [10] of over 100 µM.

`CC(C)(N)CO[C@H]1C[C@H]2CC[C@@]1(C)C2(C)C` showed a TGI [1] of 79 µM, a TGI [2] of 29.8 µM and a TGI [3] of 54.4 µM. The TGI [4] was 60.5 µM, the TGI [5] was over 100 µM and the TGI [6] was 36.5 µM. It also gave a TGI [7] of 34 µM, a TGI [8] of 34 µM and a TGI [9] of 66 µM. For the same compound, the TGI [10] was 34.3 µM.

`C=C(C)[C@@H]1CC[C@]2(C)CC[C@]3(C)[C@H](CC[C@@H]4[C@@]5(C)CC[C@H](OC(=O)c6ccccc6)C(C)(C)[C@@H]5CC[C@]43C)[C@@H]12` gave a TGI [1] of over 100 µM, a TGI [2] of over 100 µM and a TGI [3] of over 100 µM. For the same compound, the TGI [4] was over 100 µM, the TGI [5] was over 100 µM and the TGI [6] was over 100 µM. For the same compound, the TGI [7] was over 100 µM, the TGI [8] was over 100 µM and the TGI [9] was over 100 µM. The TGI [10] was over 100 µM.

`COc1cc2cc[n+](C)c(Cc3ccccc3)c2cc1OC` gave a TGI [2] of over 100 µM, a TGI [3] of over 100 µM and a TGI [7] of over 100 µM. For the same compound, the TGI [8] was over 100 µM, the TGI [9] was over 100 µM and the TGI [10] was over 100 µM.

With `CNC(C)Cc1ccccc1O` (configuration not stated) the TGI [2] was over 100 µM, the TGI [3] was over 100 µM and the TGI [7] was over 100 µM. It also gave a TGI [8] of over 100 µM, a TGI [9] of over 100 µM and a TGI [10] of over 100 µM.

`Cc1nc(Cl)c(Cl)c(Cl)n1` gave a TGI [1] of 4.49 µM, a TGI [2] of 0.24 µM and a TGI [3] of 0.149 µM. It also gave a TGI [4] of 0.482 µM, a TGI [5] of 0.988 µM and a TGI [6] of 0.656 µM. The TGI [7] was 0.442 µM, the TGI [8] was 1 µM and the TGI [9] was 2.1 µM. The TGI [10] was 1.46 µM.

In the case of `COc1ccc(-c2cc(-c3ccccc3)n(C3OCC(OC(C)=O)C(OC(C)=O)C3OC(C)=O)c(=S)c2C#N)cc1` (configuration not stated), the TGI [1] was over 100 µM, the TGI [2] was over 100 µM and the TGI [3] was over 100 µM. The TGI [4] was over 100 µM, the TGI [5] was over 100 µM and the TGI [6] was over 100 µM. It also gave a TGI [7] of over 100 µM, a TGI [8] of over 100 µM and a TGI [9] of over 100 µM. For the same compound, the TGI [10] was over 100 µM.

`Nc1ccc2c(c1)C1=NNC(=O)CC1C2` (configuration not stated) gave a TGI [2] of over 100 µM, a TGI [3] of over 100 µM and a TGI [7] of over 100 µM. For the same compound, the TGI [8] was over 100 µM, the TGI [9] was over 100 µM and the TGI [10] was over 100 µM.

Compound `COc1ccc(NS(=O)c2ccc(-c3ccccc3)cc2)cc1` (configuration not stated) has a TGI [1] of 31.2 µM, a TGI [2] of over 100 µM and a TGI [3] of over 100 µM. The TGI [5] was over 100 µM, the TGI [6] was over 100 µM and the TGI [7] was over 100 µM. It also gave a TGI [8] of over 100 µM and a TGI [9] of over 100 µM.

Work on `CC1SC(c2ccccc2)N(Nc2c3ccccc3nc3ccccc23)C1=O` (configuration not stated) yielded a TGI [2] of over 100 µM, a TGI [3] of over 100 µM and a TGI [7] of over 100 µM. It also gave a TGI [8] of over 100 µM, a TGI [9] of over 100 µM and a TGI [10] of over 100 µM.

With `CC(CN(C)C)C(=O)c1ccccc1C(=O)O` (configuration not stated) the TGI [1] was 80.6 µM, the TGI [2] was over 100 µM and the TGI [3] was over 100 µM. It also gave a TGI [4] of 41.7 µM, a TGI [5] of 94.5 µM and a TGI [6] of 81.6 µM. The TGI [7] was over 100 µM, the TGI [8] was over 100 µM and the TGI [9] was 89.1 µM. The TGI [10] was 51.3 µM.
